# From patent US6552039B2, “Fungicidal combinations comprising a 4-phenoxyquinoline” (Syngenta Crop Protection, Inc., priority 1998, dated 2003)
# Read-outs that look alike come from different tables or passages of the source.
# Tests used:
# Type in all cases: in vivo
# Uncinula necator = test: Activity against Uncinula necator on grape plants (Example B-7)
# Protocol: The deposit is then allowed to dry. One day later, the treated plants are inoculated by dusting freshly harvested conidia over the test plants; then the plants were incubated in a growt chamber for 10-14 days at +22° C. and 70% r.h. The efficacy of the test compounds is determined by comparing the degree of fungal attack with that on untreated, similarly inoculated check plants. I
# [1] = test system: Erysiphe graminis f. sp. tritici; test: Efficacy against Erysiphe graminis f.sp. tritici on wheat (Example B-5), foliar spray, synergy by COLBY
# Description: A synergistic effect exists whenever the action of an active ingredient combination is greater than the sum of the actions of the individual components.
# The action to be expected E for a given active ingredient combination obeys the so-called COLBY formula and can be calculated as follows (COLBY, S. R. “Calculating synergistic and antagonistic responses of herbicide combination”. Weeds, Vol. 15, pages 20-22; 1967):
# According to Colby, the expected (additive) action of active ingredients I+II using p+q ppm of active ingredient is [formula]
# If the action actually observed (O) is greater than the expected action (E), then the action of the combination is superadditive, i.e. there is a synergistic effect.
# Five to ten wheat seeds c.v. “Arina” are sown in plastic pots of 7 cm diameter and grown for 7 to 12 days at 20° C., 50-70% rH. When the primary leaves have fully expanded, the plants are spray treated with aqueous spray liquors containing the single compounds, or mixtures thereof (hereinafter a.i.). All compounds are used as experimental or commercially available formulations, combinations are applied as tank mixtures. The application comprises foliar spraying to near runoff (three pots per treatment). 24 hours after the application or 24 hours before application, the plants are inoculated in a settling tower with fresh spores of Erysiphe graminis f. sp. tritici. The plants are then incubated in a growth chamber at 20° C., 60% rH. Seven days after the inoculation, the percentage of infection on primary leaves is evaluated. The efficacy of the a.i. is determined by comparing the degree of fungal attack on treated plants with that on untreated, similarly inoculated and incubated check plants. Each a.i. is tested at 4 to 5 concentrations. The synergie factor is calculated according to the COLBY method.
# Septoria spp. = test: Activity against Septoria, field trial, winter wheat cv. Consort (Example B-8); conditions: for % infested leaf after 84 days: winter wheat field trial, untreated control 97
# Protocol: A field trial was carried out in Great Britain with winter wheat, cv. Consort. The experiment was arranged with 4 replicates in randomized plots each of 36 m^2. Application was carried out at 5-10% infected leaf area on the lower leaves. Cyproconazole was used as a EC240, quinoxyfen as a SC500 and the mixture cyproconazole/quinoxyfen as a SC155 formulation. Cyproconazole was applied at 80 g a.i./ha, quinoxyfen at 75 g a.i./ha and the mixture contained the same amounts of the individual active ingredients. The spray volume of all treatments was 200 l/ha. Disease assessment of Septoria spp. was estimated 84 days after application when the untrated control plants had approximated 97% infected leaf area. Results are expressed as % activity calculated on the basis of % infected leaf area.
# Erysiphe graminis = test: Field test on Erysiphe graminis, winter wheat cv. Kanzler (Example B-6); conditions: for % infested leaf area after 29 days: winter wheat field trial, untreated control 15
# Protocol: A field trial was carried out in Germany with winter wheat, cv.Kanzler. The experiment was arranged with 4 replicates in randomized plots of 12.5 m^2. Cyproconazole was used as a EC240, quinoxyfen as a SC500 and the mixture cyproconazole/quinoxyfen as a SC155 formulation. Cyproconazole was applied at 80 g a.i./ha, quinoxyfen at 75 g a.i./ha and the mixture contained the same amounts of the individual active ingredients. The spray volume of all treatments was 400 l/ha. Disease assessment of Erysiphe graminis was estimated 29 days after application when untrated control plants had 15% infected leaf area. Results are expressed as % activity calculated on the basis of % infected leaf area.
# [2] = curative application, single a.i. 0.1 mg a.i./l
# [3] = protective application, single a.i. 0.1 mg a.i./l
# [4] = protective application, single a.i. 0.25 mg a.i./l
# [5] = Blumeria graminis, foliar, curative application, single a.i. 0.05 mg a.i./l, read-out: % activity observed
compound,measurement,setting,value
CCCC(Cn1cncn1)c1ccc(Cl)cc1Cl (stereo not shown) [Penconazole],% activity observed,Uncinula necator; single a.i. 0.1 mg a.i./l,7%
same,% activity observed,Uncinula necator; single a.i. 1 mg a.i./l,42%
CCCC1COC(Cn2cncn2)(c2ccc(Cl)cc2Cl)O1 (stereo not shown) [Propiconazole],% activity observed,[1]; [2],34%
same,% activity observed,[1]; [3],1%
same,% activity observed,[1]; [4],12%
CC(C1CC1)C(O)(Cn1cncn1)c1ccc(Cl)cc1 (stereo not shown) [Cyproconazole],% activity observed,"Septoria spp.; EC240, 80 g a.i./ha, 84 days after application",42%
same,% infested leaf after 84 days,"Septoria spp.; EC240, 80 g a.i./ha",56%
same,% activity observed,"[1]; curative application, single a.i. 0.05 mg a.i./l",7%
same,% activity observed,[1]; [2],8%
same,% activity observed,"[1]; curative application, single a.i. 0.25 mg a.i./l",16%
same,% activity observed,"[1]; curative application, single a.i. 0.5 mg a.i./l",24%
same,% activity observed,"[1]; protective application, single a.i. 0.05 mg a.i./l",1%
same,% activity observed,[1]; [3],2%
same,% activity observed,[1]; [4],4%
same,% activity observed,"[1]; protective application, single a.i. 0.5 mg a.i./l",12%
same,% activity observed,"Erysiphe graminis; SL100, 80 g a.i./ha, 29 days after application",60%
same,% infested leaf area after 29 days,"Erysiphe graminis; SL100, 80 g a.i./ha",6%
Fc1ccc(Oc2ccnc3cc(Cl)cc(Cl)c23)cc1 [Quinoxyfen],inhibition at 75 g/ha,"Septoria spp.; 2016 h, SC500, 75 g a.i./ha, 84 days after application, read-out: % activity observed",12%
same,% infested leaf after 84 days,"Septoria spp.; SC500, 75 g a.i./ha",85%
same,inhibition at 0.05 µg/mL,[1]; [5],1%
same,inhibition at 0.1 µg/mL,"[1]; Blumeria graminis, foliar, curative application, single a.i. 0.1 mg a.i./l, read-out: % activity observed",3%
same,inhibition at 0.25 µg/mL,"[1]; Blumeria graminis, foliar, curative application, single a.i. 0.25 mg a.i./l, read-out: % activity observed",6%
same,inhibition at 0.5 µg/mL,"[1]; Blumeria graminis, foliar, curative application, single a.i. 0.5 mg a.i./l, read-out: % activity observed",4%
same,inhibition at 1 µg/mL,"[1]; Blumeria graminis, foliar, curative application, single a.i. 1 mg a.i./l, read-out: % activity observed",7%
same,inhibition at 0.05 µg/mL,"[1]; Blumeria graminis, foliar, protective application, single a.i. 0.05 mg a.i./l, read-out: % activity observed",0%
same,inhibition at 0.1 µg/mL,"[1]; Blumeria graminis, foliar, protective application, single a.i. 0.1 mg a.i./l, read-out: % activity observed",1%
same,inhibition at 0.25 µg/mL,"[1]; Blumeria graminis, foliar, protective application, single a.i. 0.25 mg a.i./l, read-out: % activity observed",3%
same,inhibition at 75 g/ha,"Erysiphe graminis; Blumeria graminis, 696 h, SC500, 75 g a.i./ha, 29 days after application, read-out: % activity observed",33%
same,% infested leaf area after 29 days,"Erysiphe graminis; SC500, 75 g a.i./ha",10%
same,inhibition at 0.1 µg/mL,"Uncinula necator; Erysiphe necator, single a.i. 0.1 mg a.i./l, read-out: % activity observed",48%
same,inhibition at 1 µg/mL,"Uncinula necator; Erysiphe necator, single a.i. 1 mg a.i./l, read-out: % activity observed",58%
CC(Cc1ccc(C(C)(C)C)cc1)CN1CCCCC1 (stereo not shown) [Fenpropidin],inhibition at 0.05 µg/mL,[1]; [5],0%
same,inhibition at 0.5 µg/mL,"[1]; Blumeria graminis, foliar, protective application, single a.i. 0.5 mg a.i./l, read-out: % activity observed",2%
Cc1cc(C2CC2)nc(Nc2ccccc2)n1 [Cyprodinil],% activity observed,"[1]; curative application, single a.i. 25 mg a.i./l",25%
